Measurements taken from US11466044B2 (WAYNE STATE UNIVERSITY, priority 2017, dated 2022).
≈ marks a conversion by molar mass, not a printed value. Structures can show the parent of a compound that is named as a salt. Where two headings read alike, the source gives them in different places.

Tests used:
[1] = tested on: Enterobacter cloacae AG290; assay: MIC by broth microdilution, Enterobacter cloacae; type: cell-based; conditions: strain AG290 Enterobacter cloacae; read-out: MIC AG290 E. cloacae
[2] = tested on: E coli carrying specific resistance determinants; assay: MIC by broth microdilution, E coli carrying specific resistance determinants; type: cell-based; conditions: Escherichia coli
M. abscessus = assay: MIC by broth microdilution, M. abscessus; type: cell-based; conditions: Mycobacteroides abscessus
M. smegmatis SZ380 = assay: MIC by broth microdilution, M. smegmatis; conditions: Mycolicibacterium smegmatis
MRSA = assay: MIC by broth microdilution, MRSA isolates; type: cell-based; conditions: Staphylococcus aureus, MRSA; for MIC: Table 1 (Example 3); for MIC50: Table 1 (Example 1)
[3] = tested on: cytosolic ribosome (human chimeric); type: biochemical; conditions: for Selectivity for Binding to the Bacterial Ribosome over the Cytosolic Ribosome: Table 3 (Example 3); for IC50: cytosolic, read-out: IC50 Cyt
Excerpt: (§1) The antiribosomal activity of these compounds was investigated with cell-free translation assays using both wild type bacterial ribosomes and hybrid ribosomes carrying eukaryotic decoding A sites enabling the prediction of selectivity.

[4] = tested on: mitochondrial ribosome (human chimeric); type: biochemical; conditions: for Selectivity for Binding to the Bacterial Ribosome over the Mitochondrial Ribosome: Table 3 (Example 3); for IC50: mitochondrial, read-out: IC50 Mit
Excerpt: as §1

E coli wild type = assay: MIC by broth microdilution, wild type E coli; type: cell-based; conditions: Escherichia coli; for MIC50: Table 1 (Example 1)
[5] = tested on: Klebsiella pneumonia AG215; assay: MIC by broth microdilution, Klebsiella pneumonia; type: cell-based; conditions: Klebsiella pneumoniae; strain AG215 Klebsiella pneumonia; read-out: MIC AG215 K. pneumon
P aeruginosa = assay: MIC by broth microdilution, P aeruginosa isolates; type: cell-based, Pseudomonas aeruginosa; conditions: for MIC: strain AG220 Pseudomonas aeruginosa ATCC27853, read-out: MIC AG220 P. aerugin; for MIC50: Pseudomonas aeruginosa, Table 1 (Example 1)
[6] = tested on: wild type bacterial ribosomes; assay: in-vitro translation assay, bacterial ribosomes; type: biochemical; conditions: for IC50: bacterial ribosome, read-out: IC50 Bac; for selectivity for the bacterial ribosome over mitochondrial (wild type, A1555G mutant) and cytosolic ribosomes, in words: compared with the parent compound
Excerpt: as §1

[7] = tested on: Acinetobacter baumannii pittii AG225; assay: MIC by broth microdilution, Acinetobacter baumannii; type: cell-based; conditions: strain AG225 Acinetobacter baumannii pittii
[8] = tested on: A1555G mutant mitochondrial ribosome (human chimeric); assay: in-vitro translation assay, human chimeric ribosomes, A1555G mutant mitochondrial decoding site; type: biochemical; conditions: Table 3 (Example 3)
Excerpt: as §1

N. gonorrhoeae = assay: Disk diffusion, N. gonorrhoeae; type: cell-based; conditions: Neisseria gonorrhoeae
[9] = read-out: MIC E. coli AAC(2′) AG106
[10] = read-out: MIC E. coli AAC(2′) pH434
[11] = read-out: MIC E. coli pGB2armA armA
[12] = read-out: MIC E. coli pH434 AAC(2′)-Ib
[13] = ATCC19977, ATCC 19977 WT, Table 5 (Example 3), read-out: MIC M. abscessus ATCC 19977 WT
[14] = read-out: MIC M. abscessus engineered Δeis2
[15] = ATCC, Table 4 (Example 3), read-out: MIC M. abscessus ATCC
[16] = Clin. Isol., Table 4 (Example 3), read-out: MIC M. abscessus Clin. Isol.
[17] = SZ380, read-out: MIC M. smegmatis SZ380 WT, SZ380 WT, Table 5 (Example 3)
[18] = SZ380, read-out: MIC SZ380 M. smegmatis, strain SZ380 Mycobacterium smegmatis
[19] = clinical isolate AG038, read-out: MIC MRSA AG038
[20] = clinical isolate AG039, read-out: MIC MRSA AG039
[21] = clinical isolate AG042, read-out: MIC MRSA AG042
[22] = ATCC25922, strain AG212 E. coli (ATCC25922), read-out: MIC AG212 E. coli
[23] = WT, Table 4 (Example 3), read-out: MIC E. coli WT
[24] = WT, Table 5 (Example 3), read-out: MIC E. coli WT
[25] = clinical isolate AG001, Table 1 (Example 3), read-out: MIC E coli AG001
[26] = clinical isolate AG003, Table 1 (Example 3), read-out: MIC E coli AG003
[27] = clinical isolate AG055, Table 1 (Example 3), read-out: MIC E coli AG055

CCCNC1C(OC2C(N)CC(N)C(O)C2OC2OC(CO)C(OC3OC(CN)C(O)C(O)C3N)C2O)OC(CO)C(O)C1O (centres unmarked) [Compound 128, 2′-N-Propyl-paromomycin acetate salt]
MIC [1]: 2 µg/mL
MIC [2, 9]: 2 µg/mL
MIC [2, 10]: 4 µg/mL
MIC [2, 11]: 4 to 8 µg/mL
MIC [2, 12]: 4 µg/mL
MIC (M. abscessus; [13]): 32 µg/mL
MIC (M. abscessus; [14]): 1 µg/mL
MIC (M. abscessus; [15]): 32 µg/mL
MIC (M. abscessus; [16]): 64 µg/mL
MIC (M. smegmatis SZ380; [17]): 2 µg/mL
MIC (M. smegmatis SZ380; [18]): 2 µg/mL
MIC (MRSA; [19]): 8 to 16 µg/mL
MIC (MRSA; [20]): > 128 µg/mL
MIC (MRSA; [21]): > 128 µg/mL
MIC (MRSA; clinical isolate AG044, read-out: MIC MRSA AG044): 4 µg/mL
Selectivity for Binding to the Bacterial Ribosome over the Cytosolic Ribosome [3]: 425
IC50 ([3]; Table 4 (Example 3)): 21 µM
Selectivity for Binding to the Bacterial Ribosome over the Mitochondrial Ribosome [4]: 3066
IC50 ([4]; Table 4 (Example 3)): 153 µM
MIC (E coli wild type; [22]): 4 µg/mL
MIC (E coli wild type; [23]): 2 µg/mL
MIC (E coli wild type; [24]): 2 µg/mL
MIC (E coli wild type; [25]): 16 µg/mL
MIC (E coli wild type; [26]): 16 µg/mL
MIC (E coli wild type; [27]): 16 µg/mL
MIC [5]: 2 µg/mL
MIC (P aeruginosa): > 64 µg/mL
IC50 ([6]; Table 4 (Example 3)): 50 nM
selectivity for the bacterial ribosome over mitochondrial (wild type, A1555G mutant) and cytosolic ribosomes, in words [6]: increased selectivity for the bacterial ribosome
MIC [7]: 4 µg/mL
Selectivity for Binding to the Bacterial Ribosome over the Mutant Mitochondrial Ribosome [8]: 763
zone of inhibition at 25 nmol/disc (N. gonorrhoeae): 11 mm

NCC1OC(OC2C(CNC=O)OC(OC3C(O)C(N)CC(N)C3OC3OC(CO)C(O)CC3N)C2O)C(N)C(O)C1O (centres unmarked) [Compound 153, 3′,5″-Dideoxy-5″-formamido-paromomycin]
MIC [1]: 2 µg/mL (≈ 3.19 µM)
MIC ([2]; read-out: MIC AG037 E. coli APH(3′)-III): 2 µg/mL (≈ 3.19 µM)
MIC ([2]; read-out: MIC AG163 E. coli APH(3′)-I): 4 to 8 µg/mL (≈ 6.38 to 12.8 µM)
MIC ([2]; read-out: MIC AG166 E. coli APH(3′)-II): 8 to 16 µg/mL (≈ 12.8 to 25.5 µM)
MIC ([2]; read-out: MIC APH(3)-VI): 2 to 4 µg/mL (≈ 3.19 to 6.38 µM)
MIC ([2]; read-out: MIC APH(3′)-I): 2 µg/mL (≈ 3.19 µM)
MIC ([2]; read-out: MIC APH(3′)-II): 2 µg/mL (≈ 3.19 µM)
MIC ([2]; read-out: MIC APH(3′)-III): 2 µg/mL (≈ 3.19 µM)
MIC ([2]; read-out: MIC E coli AG007 ANT(3″) AAC(3)-I): 4 µg/mL (≈ 6.38 µM)
MIC ([2]; read-out: MIC E coli AG103 ArmA): 32 µg/mL (≈ 51.1 µM)
MIC ([2]; read-out: MIC E coli AG163/164 APH(3′)-Ia): 4 to 8 µg/mL (≈ 6.38 to 12.8 µM)
MIC ([2]; read-out: MIC E coli AG166 APH(3′)-IIa): 8 to 16 µg/mL (≈ 12.8 to 25.5 µM)
MIC ([2]; read-out: MIC pH421 E. coli APH(3′)-I): 2 µg/mL (≈ 3.19 µM)
MIC ([2]; read-out: MIC pH422 E. coli APH(3′)-II): 4 µg/mL (≈ 6.38 µM)
MIC ([2]; read-out: MIC pH423 E. coli APH(3′)-VI): 2 to 4 µg/mL (≈ 3.19 to 6.38 µM)
MIC (M. smegmatis SZ380; [18]): 1 µg/mL (≈ 1.6 µM)
MIC50 (MRSA; strain AG38, read-out: MIC50 MRSA AG38): 4 µg/mL (≈ 6.38 µM)
MIC50 (MRSA; strain AG39, read-out: MIC50 MRSA AG39): > 128 µg/mL
MIC50 (MRSA; strain AG42, read-out: MIC50 MRSA AG42): > 128 µg/mL
MIC50 (MRSA; strain AG44, read-out: MIC50 MRSA AG44): 4 µg/mL (≈ 6.38 µM)
IC50 ([3]; Table 3 (Example 1)): 90 µM
IC50 ([4]; Table 3 (Example 1)): 144 µM
MIC (E coli wild type; AG006 wt, Table 2 (Example 1), read-out: MIC E coli AG006 wt): 2 µg/mL (≈ 3.19 µM)
MIC (E coli wild type; AG102 wt, Table 2 (Example 1), read-out: MIC E coli AG102 wt): 2 µg/mL (≈ 3.19 µM)
MIC (E coli wild type; AG160 wt, Table 2 (Example 1), read-out: MIC E coli AG160 wt): 2 to 4 µg/mL (≈ 3.19 to 6.38 µM)
MIC (E coli wild type; [22]): 4 µg/mL (≈ 6.38 µM)
MIC (E coli wild type; WT, Table 3 (Example 1), read-out: MIC WT): 2 µg/mL (≈ 3.19 µM)
MIC (E coli wild type; clinical isolate AG160 WT, Table 2 (Example 4), read-out: MIC AG160 E. coli WT): 2 to 4 µg/mL (≈ 3.19 to 6.38 µM)
MIC (E coli wild type; engineered strain pH430 WT, Table 2 (Example 4), read-out: MIC pH430 E. coli WT): 2 µg/mL (≈ 3.19 µM)
MIC50 (E coli wild type; strain AG01, read-out: MIC50 E coli AG01): 8 to 16 µg/mL (≈ 12.8 to 25.5 µM)
MIC50 (E coli wild type; strain AG03, read-out: MIC50 E coli AG03): 8 µg/mL (≈ 12.8 µM)
MIC50 (E coli wild type; strain AG55, read-out: MIC50 E coli AG55): 8 to 16 µg/mL (≈ 12.8 to 25.5 µM)
MIC [5]: 1 to 2 µg/mL (≈ 1.6 to 3.19 µM)
MIC50 (P aeruginosa; strain AG31, read-out: MIC50 P aeruginosa AG31): 32 to 64 µg/mL (≈ 51.1 to 102 µM)
MIC50 (P aeruginosa; strain AG32, read-out: MIC50 P aeruginosa AG32): 32 µg/mL (≈ 51.1 µM)
MIC50 (P aeruginosa; strain AG33, read-out: MIC50 P aeruginosa AG33): > 32 µg/mL
MIC (P aeruginosa): 8 µg/mL (≈ 12.8 µM)
IC50 ([6]; Table 3 (Example 1)): 120 nM
MIC [7]: 4 µg/mL (≈ 6.38 µM)
zone of inhibition at 25 nmol/disc (N. gonorrhoeae): 13 mm

CNC1C(OC2C(N)CC(N)C(O)C2OC2OC(CO)C(OC3OC(CN)C(O)C(O)C3N)C2O)OC(CN)C(O)C1O (centres unmarked) [Compound 171, 2′-N-Methyl-neomycin acetate salt]
MIC [1]: 0.5 to 1 µg/mL
MIC ([2]; read-out: MIC E coli AG106 AAC(2′)): 0.5 µg/mL
MIC [2, 9]: 0.5 µg/mL
MIC [2, 10]: 4 µg/mL
MIC ([2]; read-out: MIC E. coli AG106 AAC(2′)-Ia): 0.5 µg/mL
MIC [2, 11]: 1 µg/mL
MIC [2, 12]: 4 µg/mL
MIC (M. abscessus; [13]): 0.25 µg/mL
MIC (M. abscessus; [14]): 0.063 µg/mL
MIC (M. abscessus; [15]): 0.25 µg/mL
MIC (M. abscessus; [16]): 0.5 µg/mL
MIC (M. smegmatis SZ380; [17]): < 0.063 µg/mL
MIC (M. smegmatis SZ380; [18]): < 0.0625 µg/mL
MIC (MRSA; [19]): 0.25 to 0.5 µg/mL
MIC (MRSA; [20]): > 32 µg/mL
MIC (MRSA; [21]): > 32 µg/mL
Selectivity for Binding to the Bacterial Ribosome over the Cytosolic Ribosome [3]: 4000
IC50 ([3]; Table 4 (Example 3)): 37 µM
Selectivity for Binding to the Bacterial Ribosome over the Mitochondrial Ribosome [4]: 483
IC50 ([4]; Table 4 (Example 3)): 4.7 µM
MIC (E coli wild type; AG006 Wild type, Table 2 (Example 3), read-out: MIC E coli AG006 Wild type): 0.25 µg/mL
MIC (E coli wild type; AG104 Wild type, Table 2 (Example 3), read-out: MIC E coli AG104 Wild type): 0.5 µg/mL
MIC (E coli wild type; [22]): 1 µg/mL
MIC (E coli wild type; [23]): 0.5 µg/mL
MIC (E coli wild type; [24]): 0.5 µg/mL
MIC (E coli wild type; [25]): 1 µg/mL
MIC (E coli wild type; [26]): 1 µg/mL
MIC (E coli wild type; [27]): 1 µg/mL
MIC [5]: 0.5 µg/mL
MIC (P aeruginosa): > 64 µg/mL
IC50 ([6]; Table 4 (Example 3)): 10 nM
selectivity for the bacterial ribosome over mitochondrial (wild type, A1555G mutant) and cytosolic ribosomes, in words [6]: increased selectivity for the bacterial ribosome
MIC [7]: 1 µg/mL
Selectivity for Binding to the Bacterial Ribosome over the Mutant Mitochondrial Ribosome [8]: 117
zone of inhibition at 25 nmol/disc (N. gonorrhoeae): 9 mm
